Test results published in patent US20080009418A1, “Selective Inhibitors” (Alchemia LTD., priority 2004, published 2008).

What was measured:
Human δ-opioid (DOP) = biological target: T1, Human δ-opioid (DOP) (Homo sapiens, UniProt P41143); experiment: Radioligand binding, human δ-opioid (DOP) membranes, FlashPlate, [3H]-Bremazocine; settings: compound at 10 μM; [3H]-Bremazocine
T1 construct: purchased Perkin Elmer Biosignal
Method in brief: (§1)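 Cloned human receptor membranes were coated onto FlashPlate wells and incubated with radioligand and compound (added from a 0.5 mM DMSO daughter plate) for 1 hour at room temperature in the dark. Scintillation counting gave percent inhibition, with DMSO defining total and reference ligand defining non-specific binding.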

Human κ-Opioid (KOP) = biological target: T2, Human κ-Opioid (KOP) (Homo sapiens, UniProt P41145); experiment: Radioligand binding, human κ-opioid (KOP) membranes, filtration, [3H]-Diprenorphine; settings: compound at 10 μM; [3H]-Diprenorphine
T2 construct: purchased Perkin Elmer Biosignal
Method in brief: (§2)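 Membranes from cloned human receptors were incubated with compound and radioligand for 1 hour at room temperature. Bound ligand was collected on 0.3% PEI-soaked filters, washed with cold 50 mM Tris-HCl pH 7.4, and counted by scintillation. Percent inhibition was computed against DMSO totals and reference-ligand nonspecific wells.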

Human Melanocortin (MC3) = biological target: T3, Human Melanocortin (MC3) (Homo sapiens, UniProt P41968); experiment: Radioligand binding, human melanocortin MC3 membranes, FlashPlate, [125I]-NDP-αMSH; settings: compound at 10 μM; [125I]-NDP-αMSH
T3 construct: purchased Perkin Elmer Biosignal
Method in brief: as §1

Human Melanocortin (MC4) = biological target: T4, Human Melanocortin (MC4) (Homo sapiens, UniProt P32245); experiment: Radioligand binding, human melanocortin MC4 membranes, FlashPlate, [125I]-NDP-αMSH; settings: compound at 10 μM; [125I]-NDP-αMSH
T4 construct: purchased Perkin Elmer Biosignal
Method in brief: as §1

Human melanocortin (MC5) = biological target: T5, Human melanocortin (MC5) (Homo sapiens, UniProt P33032); experiment: Radioligand binding, human melanocortin MC5 membranes, FlashPlate, [125I]-NDP-αMSH; settings: compound at 10 μM; [125I]-NDP-αMSH
T5 construct: purchased Perkin Elmer Biosignal
Method in brief: as §1

[1] = biological target: T6, Human melanin-concentrating hormone (MCH1) (Homo sapiens, UniProt Q99705); experiment: Radioligand binding, human melanin-concentrating hormone MCH1 membranes, FlashPlate, [125I]-S36057; settings: compound at 10 μM; [125I]-S36057
T6 construct: purchased Perkin Elmer Biosignal
Method in brief: as §1

Human μ-opioid (MOP) = biological target: T7, Human μ-opioid (MOP) (Homo sapiens, UniProt P35372); experiment: Radioligand binding, human μ-opioid (MOP) membranes, FlashPlate, [3H]-Naloxone; settings: compound at 10 μM; [3H]-Naloxone
T7 construct: purchased Perkin Elmer Biosignal
Method in brief: as §1

Human neurokinin (NK1) = biological target: T8, Human neurokinin (NK1) (Homo sapiens, UniProt P25103); experiment: Radioligand binding, human neurokinin NK1 membranes, filtration, [125I]-Substance P; settings: compound at 10 μM; [125I]-Substance P
T8 construct: purchased Perkin Elmer Biosignal
Method in brief: as §2

[2] = biological target: T9, Human neuropeptide Y (NPY-Y1) (Homo sapiens, UniProt P25929); experiment: Radioligand binding, human neuropeptide Y NPY-Y1 membranes, FlashPlate, [125I]-PYY; settings: compound at 10 μM; [125I]-PYY
T9 construct: purchased Perkin Elmer Biosignal
T9 sequence (P25929 1-384): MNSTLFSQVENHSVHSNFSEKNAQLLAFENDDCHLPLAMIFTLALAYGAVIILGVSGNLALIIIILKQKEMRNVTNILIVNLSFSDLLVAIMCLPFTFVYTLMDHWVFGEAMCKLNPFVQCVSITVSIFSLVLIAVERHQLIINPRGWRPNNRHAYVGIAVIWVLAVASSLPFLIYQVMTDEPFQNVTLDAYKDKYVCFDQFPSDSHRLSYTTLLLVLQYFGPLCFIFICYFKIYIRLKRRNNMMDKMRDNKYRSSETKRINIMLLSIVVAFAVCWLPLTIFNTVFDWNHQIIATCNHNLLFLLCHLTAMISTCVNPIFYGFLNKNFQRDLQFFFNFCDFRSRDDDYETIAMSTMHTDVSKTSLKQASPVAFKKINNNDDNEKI
Method in brief: as §1

Human opioid (ORL1) = biological target: T10, Human opioid (ORL1) (Homo sapiens, UniProt P41146); experiment: Radioligand binding, human opioid ORL1 membranes, FlashPlate, [125I]-Nociceptin; settings: compound at 10 μM; [125I]-Nociceptin
T10 construct: purchased Perkin Elmer Biosignal
Method in brief: as §1

Mouse urotensin (mUR2) = biological target: T11, Mouse urotensin (mUR2) (Mus musculus, UniProt Q8VIH9); experiment: Radioligand binding, mouse urotensin mUR2 membranes, FlashPlate, [125I]-Urotensin II; settings: compound at 10 μM; [125I]-Urotensin II
T11 construct: purchased Perkin Elmer Biosignal
T11 sequence (Q8VIH9 1-385): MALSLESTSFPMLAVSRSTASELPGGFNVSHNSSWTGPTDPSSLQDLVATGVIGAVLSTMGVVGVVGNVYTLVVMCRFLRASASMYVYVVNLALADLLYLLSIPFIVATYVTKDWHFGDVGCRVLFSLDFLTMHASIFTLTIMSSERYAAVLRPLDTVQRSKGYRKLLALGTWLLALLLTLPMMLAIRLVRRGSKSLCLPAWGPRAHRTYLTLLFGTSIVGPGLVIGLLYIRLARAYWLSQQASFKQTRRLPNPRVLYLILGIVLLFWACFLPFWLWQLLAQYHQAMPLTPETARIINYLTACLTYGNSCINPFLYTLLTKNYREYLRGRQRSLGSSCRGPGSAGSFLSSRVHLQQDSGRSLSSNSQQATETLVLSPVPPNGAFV
Method in brief: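 Cloned mouse urotensin (mUR2) receptor membranes from Perkin Elmer Biosignal were immobilized in FlashPlate microplates using a proprietary coating. Each well got 19.5 μl buffer, then 0.5 μl of DMSO, reference ligand, or compound. Adding 5 μl of [125I]-Urotensin II, diluted to 5× final concentration in binding buffer, started binding. Plates were sealed with TopSeal-A and incubated 1 hour at room temperature in the dark. Wells were counted for 30 seconds each on a TopCount after a 60-second delay, and percentage inhibition was calculated.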

T10 sequence (P41146 whole entry): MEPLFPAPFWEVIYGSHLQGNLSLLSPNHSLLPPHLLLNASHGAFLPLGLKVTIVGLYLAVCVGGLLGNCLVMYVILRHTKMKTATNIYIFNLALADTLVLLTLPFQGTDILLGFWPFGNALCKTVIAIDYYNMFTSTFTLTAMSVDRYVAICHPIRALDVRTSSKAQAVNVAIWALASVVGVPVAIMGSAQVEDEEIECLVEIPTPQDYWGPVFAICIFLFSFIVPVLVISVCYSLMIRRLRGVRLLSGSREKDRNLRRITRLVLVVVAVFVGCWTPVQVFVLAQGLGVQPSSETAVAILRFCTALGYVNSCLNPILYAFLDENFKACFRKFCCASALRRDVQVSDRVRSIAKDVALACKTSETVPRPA
T6 sequence (Q99705 whole entry): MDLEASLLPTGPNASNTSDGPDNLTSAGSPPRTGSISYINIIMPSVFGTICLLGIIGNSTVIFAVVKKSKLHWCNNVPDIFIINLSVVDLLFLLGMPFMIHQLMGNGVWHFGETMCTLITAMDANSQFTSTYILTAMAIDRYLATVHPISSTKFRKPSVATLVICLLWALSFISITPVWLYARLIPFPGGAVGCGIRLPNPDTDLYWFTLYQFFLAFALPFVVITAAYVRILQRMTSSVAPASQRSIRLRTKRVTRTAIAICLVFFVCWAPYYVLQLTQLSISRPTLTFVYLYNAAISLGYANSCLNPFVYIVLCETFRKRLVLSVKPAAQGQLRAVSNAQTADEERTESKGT
T5 sequence (P33032 whole entry): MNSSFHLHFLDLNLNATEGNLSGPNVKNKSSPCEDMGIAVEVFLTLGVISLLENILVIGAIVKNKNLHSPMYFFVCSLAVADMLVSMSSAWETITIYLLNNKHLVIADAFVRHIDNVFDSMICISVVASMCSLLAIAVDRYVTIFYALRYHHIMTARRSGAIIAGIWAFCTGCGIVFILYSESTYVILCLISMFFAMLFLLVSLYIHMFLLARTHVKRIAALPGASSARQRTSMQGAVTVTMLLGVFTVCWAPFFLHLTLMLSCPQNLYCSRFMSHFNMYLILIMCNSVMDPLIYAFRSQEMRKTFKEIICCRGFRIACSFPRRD
T8 sequence (P25103 whole entry): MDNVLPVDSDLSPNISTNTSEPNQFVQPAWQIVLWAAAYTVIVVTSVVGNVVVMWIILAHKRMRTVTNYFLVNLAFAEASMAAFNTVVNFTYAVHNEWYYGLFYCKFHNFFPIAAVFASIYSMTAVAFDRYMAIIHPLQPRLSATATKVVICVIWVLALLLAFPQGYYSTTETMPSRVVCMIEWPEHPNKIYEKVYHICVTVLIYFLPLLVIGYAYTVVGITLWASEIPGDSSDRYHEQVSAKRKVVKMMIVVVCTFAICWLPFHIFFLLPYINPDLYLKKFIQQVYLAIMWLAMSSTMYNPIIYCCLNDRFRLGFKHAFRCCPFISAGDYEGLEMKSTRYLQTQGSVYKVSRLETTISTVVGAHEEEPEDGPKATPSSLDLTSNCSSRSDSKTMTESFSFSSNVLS
T7 sequence (P35372 whole entry): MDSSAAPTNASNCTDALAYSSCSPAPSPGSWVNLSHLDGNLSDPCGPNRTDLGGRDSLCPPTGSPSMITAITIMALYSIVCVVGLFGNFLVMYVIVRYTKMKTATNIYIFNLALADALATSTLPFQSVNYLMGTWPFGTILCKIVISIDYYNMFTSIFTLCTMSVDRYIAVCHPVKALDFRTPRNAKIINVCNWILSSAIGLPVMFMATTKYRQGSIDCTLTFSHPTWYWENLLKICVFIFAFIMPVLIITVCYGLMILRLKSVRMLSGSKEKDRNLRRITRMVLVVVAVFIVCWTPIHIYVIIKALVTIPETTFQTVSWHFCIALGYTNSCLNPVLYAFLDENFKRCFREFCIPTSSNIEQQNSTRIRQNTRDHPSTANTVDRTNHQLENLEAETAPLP
T3 sequence (P41968 whole entry): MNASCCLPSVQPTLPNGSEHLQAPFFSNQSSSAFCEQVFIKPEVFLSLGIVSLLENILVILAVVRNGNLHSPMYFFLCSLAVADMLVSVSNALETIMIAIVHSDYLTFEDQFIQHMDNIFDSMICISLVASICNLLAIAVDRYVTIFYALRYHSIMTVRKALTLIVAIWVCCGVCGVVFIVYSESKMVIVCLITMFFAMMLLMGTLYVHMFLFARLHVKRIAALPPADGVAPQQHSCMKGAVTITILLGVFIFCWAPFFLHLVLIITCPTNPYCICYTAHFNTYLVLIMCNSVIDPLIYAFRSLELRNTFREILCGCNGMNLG
T2 sequence (P41145 whole entry): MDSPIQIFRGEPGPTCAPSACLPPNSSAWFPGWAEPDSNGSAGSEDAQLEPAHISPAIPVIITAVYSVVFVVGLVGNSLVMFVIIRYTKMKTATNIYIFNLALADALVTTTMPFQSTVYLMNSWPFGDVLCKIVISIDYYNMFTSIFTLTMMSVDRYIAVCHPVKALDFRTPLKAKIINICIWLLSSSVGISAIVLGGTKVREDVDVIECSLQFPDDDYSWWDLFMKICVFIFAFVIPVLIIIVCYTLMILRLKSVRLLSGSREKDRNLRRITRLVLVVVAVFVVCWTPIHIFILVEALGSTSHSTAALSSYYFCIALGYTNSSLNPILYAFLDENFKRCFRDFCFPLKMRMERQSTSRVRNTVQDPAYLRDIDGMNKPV
T4 sequence (P32245 whole entry): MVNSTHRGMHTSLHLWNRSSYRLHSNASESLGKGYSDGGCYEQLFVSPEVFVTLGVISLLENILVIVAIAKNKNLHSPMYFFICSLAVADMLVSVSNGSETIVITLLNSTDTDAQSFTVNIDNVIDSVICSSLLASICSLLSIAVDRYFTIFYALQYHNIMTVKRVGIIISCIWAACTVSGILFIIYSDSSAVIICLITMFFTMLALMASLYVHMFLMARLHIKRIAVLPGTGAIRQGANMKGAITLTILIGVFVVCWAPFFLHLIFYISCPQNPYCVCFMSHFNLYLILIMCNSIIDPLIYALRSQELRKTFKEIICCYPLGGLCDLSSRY
T1 sequence (P41143 whole entry): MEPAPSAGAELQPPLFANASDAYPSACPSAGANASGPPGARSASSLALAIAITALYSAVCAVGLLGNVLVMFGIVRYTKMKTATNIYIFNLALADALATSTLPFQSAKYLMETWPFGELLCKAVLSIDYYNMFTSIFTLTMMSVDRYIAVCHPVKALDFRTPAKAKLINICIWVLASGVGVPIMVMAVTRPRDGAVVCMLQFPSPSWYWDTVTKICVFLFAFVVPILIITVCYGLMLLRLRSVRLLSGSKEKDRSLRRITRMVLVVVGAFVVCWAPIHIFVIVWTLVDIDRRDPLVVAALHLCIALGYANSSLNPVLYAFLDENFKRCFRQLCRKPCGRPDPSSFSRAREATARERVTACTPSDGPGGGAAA

Structure (SMILES)	A1: inhibition of radioligand binding, human δ-opioid (DOP) (Human δ-opioid (DOP))	A2: inhibition of radioligand binding, human κ-opioid (KOP) (Human κ-Opioid (KOP))	A3: inhibition of radioligand binding, human melanocortin (MC3) (Human Melanocortin (MC3))	A4: inhibition of radioligand binding, human melanocortin (MC4) (Human Melanocortin (MC4))	A5: inhibition of radioligand binding, human melanocortin (MC5) (Human melanocortin (MC5))	A6: inhibition of radioligand binding, human melanin-concentrating hormone (MCH1) [1]	A7: inhibition of radioligand binding, human μ-opioid (MOP) (Human μ-opioid (MOP))	A8: inhibition of radioligand binding, human neurokinin (NK1) (Human neurokinin (NK1))	A9: inhibition of radioligand binding, human neuropeptide Y (NPY-Y1) [2]	A10: inhibition of radioligand binding, human opioid (ORL1) (Human opioid (ORL1))	A11: inhibition of radioligand binding, mouse urotensin (mUR2) (Mouse urotensin (mUR2))
COC[C@H]1OC(OCc2ccc3ccccc3c2)[C@H](NC(=O)CCCNC(=N)N)[C@@H](OCc2ccc3ccccc3c2)[C@@H]1O (stereo partly shown) [compound 339]	− (“−” indicates less than 50% inhibition at 10 μM)	− (“−” indicates less than 50% inhibition at 10 μM)	− (“−” indicates less than 50% inhibition at 10 μM)	+ (“+” indicates greater than 50% inhibition at 10 μM)	+ (“+” indicates greater than 50% inhibition at 10 μM)	+ (“+” indicates greater than 50% inhibition at 10 μM)	+ (“+” indicates greater than 50% inhibition at 10 μM)	+ (“+” indicates greater than 50% inhibition at 10 μM)	− (“−” indicates less than 50% inhibition at 10 μM)	− (“−” indicates less than 50% inhibition at 10 μM)	− (“−” indicates less than 50% inhibition at 10 μM)
COC[C@H]1OC(OCc2ccc3ccccc3c2)[C@H](NC(=O)CCCN)[C@@H](OCc2ccc(Cl)cc2)[C@@H]1O (stereo partly shown) [compound 340]	− (“−” indicates less than 50% inhibition at 10 μM)	− (“−” indicates less than 50% inhibition at 10 μM)	− (“−” indicates less than 50% inhibition at 10 μM)	− (“−” indicates less than 50% inhibition at 10 μM)	− (“−” indicates less than 50% inhibition at 10 μM)	− (“−” indicates less than 50% inhibition at 10 μM)	− (“−” indicates less than 50% inhibition at 10 μM)	+ (“+” indicates greater than 50% inhibition at 10 μM)	− (“−” indicates less than 50% inhibition at 10 μM)	− (“−” indicates less than 50% inhibition at 10 μM)	− (“−” indicates less than 50% inhibition at 10 μM)
COC[C@H]1OC(OCc2ccc3ccccc3c2)[C@H](NC(=O)CCCNC(=N)N)[C@@H](OCc2ccc(Cl)cc2)[C@@H]1O (stereo partly shown) [compound 341]	− (“−” indicates less than 50% inhibition at 10 μM)	− (“−” indicates less than 50% inhibition at 10 μM)	− (“−” indicates less than 50% inhibition at 10 μM)	− (“−” indicates less than 50% inhibition at 10 μM)	− (“−” indicates less than 50% inhibition at 10 μM)	+ (“+” indicates greater than 50% inhibition at 10 μM)	+ (“+” indicates greater than 50% inhibition at 10 μM)	+ (“+” indicates greater than 50% inhibition at 10 μM)	− (“−” indicates less than 50% inhibition at 10 μM)	− (“−” indicates less than 50% inhibition at 10 μM)	− (“−” indicates less than 50% inhibition at 10 μM)
COC[C@H]1OC(OCc2ccc(Cl)cc2)[C@H](NC(=O)CCCN)[C@@H](OCc2ccc(-c3ccccc3)cc2)[C@@H]1O (stereo partly shown) [compound 342]	− (“−” indicates less than 50% inhibition at 10 μM)	− (“−” indicates less than 50% inhibition at 10 μM)	− (“−” indicates less than 50% inhibition at 10 μM)	+ (“+” indicates greater than 50% inhibition at 10 μM)	− (“−” indicates less than 50% inhibition at 10 μM)	− (“−” indicates less than 50% inhibition at 10 μM)	+ (“+” indicates greater than 50% inhibition at 10 μM)	+ (“+” indicates greater than 50% inhibition at 10 μM)	− (“−” indicates less than 50% inhibition at 10 μM)	− (“−” indicates less than 50% inhibition at 10 μM)	− (“−” indicates less than 50% inhibition at 10 μM)
COC1C(O)C(COCc2ccc3ccccc3c2)OC(OCc2ccc(Cl)cc2)C1NC(=O)C1CCCN1 (stereo not shown) [compound 347]	− (“−” indicates less than 50% inhibition at 10 μM)	− (“−” indicates less than 50% inhibition at 10 μM)	− (“−” indicates less than 50% inhibition at 10 μM)	− (“−” indicates less than 50% inhibition at 10 μM)	− (“−” indicates less than 50% inhibition at 10 μM)	− (“−” indicates less than 50% inhibition at 10 μM)	− (“−” indicates less than 50% inhibition at 10 μM)	+ (“+” indicates greater than 50% inhibition at 10 μM)	− (“−” indicates less than 50% inhibition at 10 μM)	− (“−” indicates less than 50% inhibition at 10 μM)	− (“−” indicates less than 50% inhibition at 10 μM)
